Like-named read-outs stand apart in the source and are kept apart here.
Legend:
Set-up in all cases: species or system Hepatitis C virus
Conditions in all cases: replicon RNA by real time PCR, day 3
HCV replicon 1A Y93H = assay: Cell-based HCV replicon assay (Replicon Assay A), replicon 1AY93H
Description: (§1) To measure cell-based anti-HCV activity of compounds of the present invention, two complimentary assays were employed using various replicons. In the first assay (“Replicon Assay A”), replicon cells were seeded at 2000 cells/well in 384-well 384-well flat bottom tissue culture treated clear bottom plate (Corning 3707) in the presence of the test compound. Various concentrations of test compound, typically in 10 serial dilutions, were added to the assay mixture, with the starting concentration ranging from 333.3 nM to 1.667 nM. The final concentration of DMSO was 0.5%. Fetal bovine serum was 5%, in the assay media. Cells were harvested on day 3 by removing media and washing the cells with a suitable wash buffer. The cells were lysed with the addition of 1× Qiagen lysis buffer (Cat #1062731). The replicon RNA level was measured using real time PCR (TaqMan® EZ RT-PCR, Applied Biosystems 403028) with the following primers and probes: […]
(§2) Cyclophilin RNA was used as endogenous control and was amplified in the same reaction as NS5B (multiplex PCR). The real-time RT-PCR reactions were run on ABI PRISM 7900HT Sequence Detection System using the following program: 50° C. for 2 minutes, 60° C. for 30 minutes, 95° C. for 5 minutes, 40 cycles of 94° C. for 20 sec, 55° C. for 1 minutes.
(§3) The amount of HCV replicon RNA per cell was quantified using a linear regression curve for a known nanogram (ng) amount of HCV replicon total RNA. This was established by plotting the Cycle Threshold values (Ct) from the Neo probe and primer set versus the log (ng) for each HCV replicon total RNA standard. The amount of HCV RNA for each replicon sample was calculated by taking the sample's Ct value, minus the line intercept, divided by the slope of the line. Similarly, the amount of Cyclophilin mRNA per cell was also quantified using a linear regression curve for a known nanogram (ng) amount of HCV replicon total RNA. Again, this was established by plotting the Cycle Threshold values (Ct) from the Cyclophilin probe and primer set versus the log (ng) for each HCV replicon total RNA standard.
(§4) The real-time RT-PCR reactions were run on ABI PRISM 7900HT or Viia7 Sequence Detection System using the following program: 48° C. for 30 minutes, 95° C. for 10 minutes, 40 cycles of 95° C. for 15 sec, 60° C. for 1 minutes. The 50% effective concentration (EC50) was the drug concentration necessary to achieve an increase in the cycle threshold (CT) of 1 over the projected baseline CT.
(§5) Data was obtained for various compounds of the present invention using the methods described in the Example above, and is presented in the table immediately below. EC50 data for replicons 1A, 1AY93H and 2B were obtained using Replicon Assay A and EC50 data for replicon 1B was obtained using Replicon Assay B.

HCV replicon 1A = assay: Cell-based HCV replicon assay (Replicon Assay A), replicon 1A
Description: as §1, §2, §3, §4, §5

HCV replicon 2B = assay: Cell-based HCV replicon assay (Replicon Assay A), replicon 2B
Description: as §1, §2, §3, §4, §5

[1] = read-out: EC50 replicon 1A Y93H, Replicon Assay A
[2] = read-out: EC50 replicon 2B, Replicon Assay A
[3] = Hepatitis C virus, 72 h, read-out: EC50 replicon 2B, Replicon Assay A

SMILES	EC50 (HCV replicon 1A Y93H; [1])	EC50 (HCV replicon 1A; Hepatitis C virus, 72 h)	EC50 (HCV replicon 2B; [2])	EC50 (HCV replicon 1A)	EC50 (HCV replicon 1A Y93H; Hepatitis C virus, 72 h, read-out: EC50 replicon 1A Y93H, Replicon Assay A)	EC50 (HCV replicon 2B; [3])
COC(=O)N[C@H](C(=O)N1CCC[C@H]1c1ncc(-c2cc(F)c3c(c2)OC(c2ccc4c(c2)CCC(C)(C)O4)n2c-3cc3cc(-c4cnc([C@@H]5CCCN5C(=O)[C@@H](NC(=O)OC)C(C)C)[nH]4)ccc32)[nH]1)C(C)C (single isomer, unassigned) [Compound 21]	7.11 nM	0.0015 nM	3.56 nM			
COC(=O)NC(C(=O)N1CCC[C@H]1c1ncc(-c2ccc3c(c2)cc2n3C(c3ccc4c(c3)CCC(C)O4)Oc3cc(-c4cnc([C@@H]5CCCN5C(=O)[C@@H](NC(=O)OC)C(C)C)[nH]4)cc(F)c3-2)[nH]1)C1C[C@@H](C)O[C@@H](C)C1 (single isomer, unassigned) [Compound 55]	1.86 nM	0.0019 nM	1.26 nM			
COC(=O)NC(C(=O)N1CCC[C@H]1c1ncc(-c2ccc3c(c2)cc2n3C(c3ccc4c(c3)OC(C)CC4)Oc3cc(-c4cnc([C@@H]5CCCN5C(=O)[C@@H](NC(=O)OC)C(C)C)[nH]4)cc(F)c3-2)[nH]1)C1CCOC(C)(C)C1 (single isomer, unassigned) [Compound 61]	1.49 nM	0.0023 nM	0.215 nM			
COC(=O)N[C@H](C(=O)N1CCC[C@H]1c1ncc(-c2cc(F)c3c(c2)OC(c2ccc4c(c2)OC(C)CC4)n2c-3cc3cc(-c4cnc([C@@H]5CCCN5C(=O)[C@@H](NC(=O)OC)C(C)C)[nH]4)ccc32)[nH]1)C(C)C (single isomer, unassigned) [Compound 11]	5.7 nM	0.0025 nM	1.39 nM			
COC(=O)N[C@H](C(=O)N1CCC[C@H]1c1ncc(-c2cc(F)c3c(c2)OC(c2ccc4c(c2)CC2CC2(C)O4)n2c-3cc3cc(-c4cnc([C@@H]5CCCN5C(=O)[C@@H](NC(=O)OC)C(C)C)[nH]4)ccc32)[nH]1)C(C)C (single isomer, unassigned) [Compound 26]	0.344 nM		1.41 nM	0.0028 nM		
COC(=O)NC(C(=O)N1CCC[C@H]1c1ncc(-c2ccc3c(c2)cc2n3C(c3ccc4c(c3)CCCO4)Oc3cc(-c4cnc([C@@H]5CCCN5C(=O)[C@@H](NC(=O)OC)C(C)C)[nH]4)cc(C)c3-2)[nH]1)C1C[C@@H](C)O[C@@H](C)C1 (single isomer, unassigned) [Compound 83]		0.0039 nM			0.594 nM	0.16 nM
COC(=O)N[C@H](C(=O)N1CCC[C@H]1c1ncc(-c2cc(F)c3c(c2)OC(c2ccc4c(c2)CCCO4)n2c-3cc3cc(-c4cnc([C@@H]5CCCN5C(=O)[C@@H](NC(=O)OC)C(C)C)[nH]4)ccc32)[nH]1)C(C)C (single isomer, unassigned) [Compound 23]	2.62 nM	0.002 nM	5.17 nM			
COC(=O)N[C@H](C(=O)N1CCC[C@H]1c1ncc(-c2cc(F)c3c(c2)OC(c2ccc4c(c2)CCCO4)n2c-3cc3cc(-c4cnc([C@@H]5C[C@H]6C[C@H]6N5C(=O)[C@@H](NC(=O)OC)C(C)C)[nH]4)ccc32)[nH]1)C(C)C (single isomer, unassigned) [Compound 46]	4.13 nM		7.71 nM	0.0026 nM		
COC(=O)N[C@H](C(=O)N1CCC[C@H]1c1ncc(-c2cc(F)c3c(c2)OC(c2ccc4c(c2)OCCC42CC2)n2c-3cc3cc(-c4cnc([C@@H]5CCCN5C(=O)[C@@H](NC(=O)OC)C(C)C)[nH]4)ccc32)[nH]1)C(C)C (single isomer, unassigned) [Compound 16]	0.031 nM		0.038 nM	0.002 nM		
COC(=O)NC(C(=O)N1CCC[C@H]1c1ncc(-c2ccc3c(c2)cc2n3C(c3ccc4c(c3)OCCC4)Oc3cc(-c4cnc([C@@H]5CCCN5C(=O)[C@@H](NC(=O)OC)C(C)C)[nH]4)cc(F)c3-2)[nH]1)C1C[C@@H](C)O[C@H](C)C1 (single isomer, unassigned) [Compound 77]	0.496 nM	0.0015 nM	0.099 nM			
COC(=O)N[C@H](C(=O)N1CCC[C@H]1c1ncc(-c2cc(F)c3c(c2)OC(c2ccc4c(c2)OCCC4(F)F)n2c-3cc3cc(-c4cnc([C@@H]5CCCN5C(=O)[C@@H](NC(=O)OC)C(C)C)[nH]4)ccc32)[nH]1)C(C)C (single isomer, unassigned) [Compound 19]	4.2 nM	0.0014 nM	0.767 nM			
COC(=O)NC(C(=O)N1CCC[C@H]1c1ncc(-c2ccc3c(c2)cc2n3C(c3ccc4c(c3)OC(C)CC4)Oc3cc(-c4cnc([C@@H]5CCCN5C(=O)[C@@H](NC(=O)OC)C(C)C)[nH]4)cc(F)c3-2)[nH]1)C1CCOC(C)(C)C1 (single isomer, unassigned) [Compound 62]	0.516 nM		0.253 nM	0.0019 nM		
COC(=O)N[C@H](C(=O)N1CCC[C@H]1c1ncc(-c2cc(F)c3c(c2)OC(c2ccc4c(c2)CCCO4)n2c-3cc3cc(-c4cnc([C@@H]5C[C@H]6C[C@H]6N5C(=O)[C@@H](NC(=O)OC)C(C)C)[nH]4)ccc32)[nH]1)C(C)C (single isomer, unassigned) [Compound 45]	0.12 nM			0.001 nM		5.28 nM
COC(=O)NC(C(=O)N1CCC[C@H]1c1ncc(-c2ccc3c(c2)cc2n3C(c3ccc4c(c3)OC(C)CC4)Oc3cc(-c4cnc([C@@H]5CCCN5C(=O)[C@@H](NC(=O)OC)C(C)C)[nH]4)cc(F)c3-2)[nH]1)C1C[C@@H](C)O[C@@H](C)C1 (single isomer, unassigned) [Compound 57]	0.685 nM	0.002 nM	0.33 nM			
COC(=O)NC(C(=O)N1CCC[C@H]1c1ncc(-c2ccc3c(c2)cc2n3C(c3ccc4c(c3)OCCC4)Oc3cc(-c4cnc([C@@H]5CCCN5C(=O)[C@@H](NC(=O)OC)C(C)C)[nH]4)cc(F)c3-2)[nH]1)C1C[C@@H](C)O[C@@H](C)C1 (single isomer, unassigned) [Compound 75]	1.27 nM	0.0018 nM	0.296 nM			
COC(=O)NC(C(=O)N1[C@@H]2C[C@@H]2C[C@H]1c1ncc(-c2ccc3c(c2)cc2n3C(c3ccc4c(c3)OCCC4)Oc3cc(-c4cnc([C@@H]5CCCN5C(=O)[C@@H](NC(=O)OC)C(C)C)[nH]4)cc(F)c3-2)[nH]1)C1CCO[C@H](C)C1 (single isomer, unassigned) [Compound 81]	0.188 nM	0.002 nM	0.27 nM			
COC(=O)NC(C(=O)N1[C@@H]2C[C@@H]2C[C@H]1c1ncc(-c2ccc3c(c2)cc2n3C(c3ccc4c(c3)OCCC4)Oc3cc(-c4cnc([C@@H]5CCCN5C(=O)[C@@H](NC(=O)OC)C(C)C)[nH]4)cc(F)c3-2)[nH]1)C1C[C@@H](C)O[C@@H](C)C1 (single isomer, unassigned) [Compound 67]	0.391 nM	0.0012 nM	0.607 nM			
COC(=O)NC(C(=O)N1CCC[C@H]1c1ncc(-c2ccc3c(c2)cc2n3C(c3ccc4c(c3)CCCO4)Oc3cc(-c4cnc([C@@H]5CCCN5C(=O)[C@@H](NC(=O)OC)C(C)C)[nH]4)cc(C)c3-2)[nH]1)C1C[C@@H](C)O[C@@H](C)C1 (single isomer, unassigned) [Compound 84]	0.674 nM		0.193 nM	0.002 nM		
COC(=O)NC(C(=O)N1CCC[C@H]1c1ncc(-c2ccc3c(c2)cc2n3C(c3ccc4c(c3)CCCO4)Oc3cc(-c4cnc([C@@H]5CCCN5C(=O)[C@@H](NC(=O)OC)C(C)C)[nH]4)cc(F)c3-2)[nH]1)C1C[C@@H](C)O[C@@H](C)C1 (single isomer, unassigned) [Compound 73]	1.36 nM	0.0031 nM	0.791 nM			

Source: patent US10738062B2, “Chromane-substituted tetracyclic compounds and uses thereof for the treatment of viral diseases” (Merck Sharp & Dohme Corp., priority 2016, dated 2020)
